Measured values: patent US20200188388A1, “METHODS AND COMPOSITIONS FOR PO[…] DRUGS AND REDUCING THEIR SIDE EFFECTS” (RVX THERAPEUTICS LTD., priority 2016, published 2020)

Columns and labels:
Wistar rats [1] = assay: Rotenone-induced PSP: severe ataxia, limb dystonia and lethality; assay type: in vivo, rat; settings: for Severe ataxia sustained dystonic postures and lethality (% of group): ataxia and limb dystonia ++-+++; for [lethality] (% of group): value in brackets
Description: The neuro-protective effect in the experimental groups of rats with rotenone-induced PSP was evaluated due the elimination of ataxia, limb dystonia and mortality caused by cerebellar neurotoxic action of rotenone (J. Neurochem., 2005, Vol. 95(4):930-9).
Ataxia and limb dystonia is typical incoordination neurotoxic effect of rotenone manifested in uncoordinated movements and hyper-locomotion, replaced by hypokinesia and stereotypes, and in severe cases a complete violation of antigravity reflexes, falling on its side dystonic posture and akinesia. Assessment of the severity of ataxia and limb dystonia in scores was performed using the following scale: (+) uncoordinated movement, hyperkinesia; (++) significant incoordination, hypokinesia, stereotypes, falling on its side; frequent spontaneous dystonic postures (+++) complete violation of antigravity reflexes, akinesia, sustained dystonic posture (J. Neurosci., 2014, 27; 34(35):11723-32)
(§1) Ataxia and limb dystonia registration was performed twice daily, 30 minutes before administration of rotenone and 180 minutes after administration of rotenone. For each experimental group on a daily basis, throughout the whole period of observation number of rats with severe ataxia and limb dystonia (++−+++) and mortality in % of the total number of rats in group was determined. The neuro-protective effect of therapy (effects on rate of ataxia, limb dystonia and lethality) in rats with PSP was determined at days 12 and 19 of the experiment as reducing the number of rats with severe ataxia limb dystonia and mortality in % compared to control. Side hyperkinetic effects were evaluated in the “open field” test. In this test the locomotive activity in rats is determined. […] Registration of horizontal and vertical locomotive activity in OF assay was performed on the 10th and 18th day of the experiment, within 40 minutes after administration of the substance and 5 minutes before administration of rotenone. Side hyperkinetic effects was evaluated by the number of rats with a significant (at least 50% compared with the first day of the experiment) increase in horizontal and vertical activity (hyperkinesia) as a % of the total number of rats in group.
The neuro-protective effect in the experimental groups of rats with rotenone-induced PSP was evaluated due the elimination of ataxia and mortality caused by neurotoxic action of rotenone. Ataxia is typical incoordination neurotoxic effect of rotenone manifested in uncoordinated movements and hyper-locomotion, replaced by hypokinesia and stereotypes, and in severe cases a complete violation of antigravity reflexes, falling on its side and akinesia. Assessment of the severity of ataxia in scores was performed using the following scale: (+) uncoordinated movement, hyperkinesia; (++) significant incoordination, hypokinesia, stereotypes, falling on its side; (+++) complete violation of antigravity reflexes, akinesia. Ataxia registration was performed twice daily, 30 minutes before administration of rotenone and 180 minutes after administration of rotenone. For each experimental group on a daily basis, throughout the whole period of observation number of rats with severe ataxia (++−+++) and mortality in % of the total number of rats in group was determined. The neuro-protective effect of therapy (effects on rate of ataxia and lethality) in rats with PSP was determined at days 12 and 19 of the experiment as reducing the number of rats with severe ataxia and mortality in % compared to control. Side hyperkinetic effects were evaluated in the “open field” test. In this test the locomotive activity in rats is determined. […] Registration of horizontal and vertical locomotive activity in OF assay was performed on the 10th and 18th day of the experiment, within 40 minutes after administration of the substance and 5 minutes before administration of rotenone.

Wistar rats [2] = assay: Rotenone model: hyperkinetic side effect in open field test (days 10 and 18); assay type: in vivo, rat; settings: locomotive activity in OF test increased more than 50% vs first day
Description: Anti-parkinsonian effect of therapy in rats with rotenone-induced PD was estimated according to elimination of extrapyramidal disorders (catalepsy) and oligokinesia (rapid decreased amplitude and velocity of repeated movements) in the “open field” test. The neuro-protective effect of therapy was evaluated by the elimination of ataxia limb dystonia and mortality in rats with rotenone-induced PSP. Hyperkinetic side action (hyper-locomotion) was evaluated by increased horizontal and vertical activity in the open field at the 10th and 18th day of the experiment, calculated in % compared to the first day of the experiment.
as §1
Anti-parkinsonian effect of therapy in rats with rotenone-induced parkinsonism was estimated according to elimination of extrapyramidal disorders (catalepsy) and oligokinesia in the “open field” test. The neuro-protective effect of therapy was evaluated by the elimination of ataxia and mortality in rats with rotenone-induced PSP. Hyperkinetic side action (hyper-locomotion) was evaluated by increased horizontal and vertical activity in the open field at the 10th and 18th day of the experiment, calculated in % compared to the first day of the experiment.
The neuro-protective effect in the experimental groups of rats with rotenone-induced PSP was evaluated due the elimination of ataxia and mortality caused by neurotoxic action of rotenone. Ataxia is typical incoordination neurotoxic effect of rotenone manifested in uncoordinated movements and hyper-locomotion, replaced by hypokinesia and stereotypes, and in severe cases a complete violation of antigravity reflexes, falling on its side and akinesia. Assessment of the severity of ataxia in scores was performed using the following scale: (+) uncoordinated movement, hyperkinesia; (++) significant incoordination, hypokinesia, stereotypes, falling on its side; (+++) complete violation of antigravity reflexes, akinesia. Ataxia registration was performed twice daily, 30 minutes before administration of rotenone and 180 minutes after administration of rotenone. For each experimental group on a daily basis, throughout the whole period of observation number of rats with severe ataxia (++−+++) and mortality in % of the total number of rats in group was determined. The neuro-protective effect of therapy (effects on rate of ataxia and lethality) in rats with PSP was determined at days 12 and 19 of the experiment as reducing the number of rats with severe ataxia and mortality in % compared to control. Side hyperkinetic effects were evaluated in the “open field” test. In this test the locomotive activity in rats is determined. […]

| SMILES | Severe ataxia sustained dystonic postures and lethality (% of group) (Wistar rats [1]; Day 12, memantine 5 mg/kg oral) | [lethality] (% of group) (Wistar rats [1]; Day 12, memantine 5 mg/kg oral) | Severe ataxia sustained dystonic postures and lethality (% of group) (Wistar rats [1]; Day 19, memantine 5 mg/kg oral) | [lethality] (% of group) (Wistar rats [1]; Day 19, memantine 5 mg/kg oral) | Hyperkmesia (% of group) (Wistar rats [2]; Day 10, memantine 5 mg/kg oral) | Hyperkmesia (% of group) (Wistar rats [2]; Day 18, memantine 5 mg/kg oral) | Severe ataxia sustained dystonic postures and lethality (% of group) (Wistar rats [1]; Day 12, levodopa 10 mg/kg oral) | [lethality] (% of group) (Wistar rats [1]; Day 12, levodopa 10 mg/kg oral) | Severe ataxia sustained dystonic postures and lethality (% of group) (Wistar rats [1]; Day 12, levodopa 20 mg/kg oral) | [lethality] (% of group) (Wistar rats [1]; Day 12, levodopa 20 mg/kg oral) | Severe ataxia sustained dystonic postures and lethality (% of group) (Wistar rats [1]; Day 19, levodopa 10 mg/kg oral) | [lethality] (% of group) (Wistar rats [1]; Day 19, levodopa 10 mg/kg oral) | Severe ataxia sustained dystonic postures and lethality (% of group) (Wistar rats [1]; Day 19, levodopa 20 mg/kg oral) | [lethality] (% of group) (Wistar rats [1]; Day 19, levodopa 20 mg/kg oral) | Hyperkmesia (% of group) (Wistar rats [2]; Day 10, levodopa 10 mg/kg oral) | Hyperkmesia (% of group) (Wistar rats [2]; Day 10, levodopa 20 mg/kg oral) | Hyperkmesia (% of group) (Wistar rats [2]; Day 18, levodopa 10 mg/kg oral) | Hyperkmesia (% of group) (Wistar rats [2]; Day 18, levodopa 20 mg/kg oral) |
| --- | --- | --- | --- | --- | --- | --- | --- | --- | --- | --- | --- | --- | --- | --- | --- | --- | --- | --- |
| CC12CC3CC(C)(C1)CC(N)(C3)C2 [Memantine, memantine] | 0 % of group | 17 % of group | 17[17] % of group | 17[17] % of group | 40 % of group | 60 % of group |  |  |  |  |  |  |  |  |  |  |  |  |
| N[C@@H](Cc1ccc(O)c(O)c1)C(=O)O [Levodopa, L-3,4-dihydroxyphenylalanine] |  |  |  |  |  |  | 14 % of group | 0 % of group | 0[0] % of group | 0[0] % of group | 42 % of group | 14 % of group | 24 % of group | 0 % of group | 0 % of group | 88 % of group | 0 % of group | 75 % of group |
